Reference: patent publication US20160175318A1, “COMPOSITIONS COMPRISING ANTIBACTERIAL AGENT AND TAZOBACTAM” (WOCKHARDT LIMITED, priority 2013, published 2016)
Like-named read-outs stand apart in the source and are kept apart here. Blank lines part the entries; values can stand above or below the compound they belong to.

Columns and labels:
Type in all cases: cell-based
E. cloacae M-20 = test: MIC by agar dilution (CLSI) against highly resistant ESBL strain; settings: E. cloacae M-20
Method: (§1) The results on activity of cefepime and other cephalosporin antibacterial agents in combination with tazobactam against highly resistant ESBL strains are given Table 1. In a typical study, overnight grown bacterial cultures were diluted appropriately and inoculated on the agar media containing doubling dilutions of the antibiotic. Observation for growth or no growth was performed after 16-20 h of incubation at 35±2° C. in ambient air. The overall procedure was performed as per Clinical and Laboratory Standards Institute (CLSI) recommendations. This experimental was followed for Examples 2-4 and 6 below (Table 2-4 and 7).

E. coli 7MP [1] = test: as above; settings: E. coli 7MP
Method: as §1

E. coli B-89 [2] = test: as above; settings: E. coli B-89
Method: as §1

E. coli M50 [3] = test: as above
Method: as §1

K. pneumoniae M150 = test: as above; settings: Klebsiella pneumoniae, M150, K. pneumoniae M150, read-out: MIC
Method: as §1

E. coli 7MP [4] = test: Quantitative drug diffusion assay (disc, zone of inhibition, CLSI); parameters: key to Interpretation of zone as per CLSI recommendations: R: Resistant; I: Intermediate; S: Sensitive (Interpretation as per CLSI recommendations, 2010)
Excerpt: (§2) Activity of cefepime in combination with tazobactam and various penicillins in combination with respective ESBL inhibitors was also investigated against highly resistant ESBL strains in quantitative drug diffusion assay performed as per CLSI recommendations (Clinical and Laboratory Standards Institute (CLSI), performance Standards for Antimicrobial Susceptibility Testing, 20th Informational Supplement, M 100-S20, Volume 30, No. 1, 2010).
(§3) In a typical study, overnight grown bacterial cultures after appropriate dilution were seed inoculated in the molten, cooled agar media and plates poured. Antibiotics containing 6 mm diameter discs were place on the top of the agar surface. Zone of inhibition based observation was performed after 16-18 h of incubation at 35±2° C. in ambient air. The overall procedure was performed as per CLSI recommendations (Table 5 and 6). These assays are routinely used in determining possibility of treating a particular infection using antibiotic and/or their combinations. For example, in case of treating an infection caused by E. coli (M138) using Augmentin® [commercially available combination: Amoxicillin (500 mg)+Clavulanic acid (125 mg)], the zone inhibition values need to be in the sensitive (S) range.

E. coli B-123 = test: as above; parameters: key to Interpretation of zone as per CLSI recommendations: R: Resistant; I: Intermediate; S: Sensitive (Interpretation as per CLSI recommendations, 2010)
Excerpt: as §2, §3

E. coli B-89 [5] = test: as above; parameters: key to Interpretation of zone as per CLSI recommendations: R: Resistant; I: Intermediate; S: Sensitive (Interpretation as per CLSI recommendations, 2010)
Excerpt: as §2, §3

E. coli M-138 = test: as above; parameters: key to Interpretation of zone as per CLSI recommendations: R: Resistant; I: Intermediate; S: Sensitive (Interpretation as per CLSI recommendations, 2010)
Excerpt: as §2, §3

E. coli M50 [6] = test: as above; parameters: key to Interpretation of zone as per CLSI recommendations: R: Resistant; I: Intermediate; S: Sensitive (Interpretation as per CLSI recommendations, 2010)
Excerpt: as §2, §3

E. coli S-112 = test: as above; parameters: key to Interpretation of zone as per CLSI recommendations: R: Resistant; I: Intermediate; S: Sensitive (Interpretation as per CLSI recommendations, 2010)
Excerpt: as §2, §3

[7] = Enterobacter cloacae, M20, 20 h, Tazobactam 0 mcg (antibiotic alone), read-out: MIC
[8] = Escherichia coli, 7MP, 20 h, Tazobactam 0 mcg (antibiotic alone), read-out: MIC
[9] = Escherichia coli, B89, 20 h, Tazobactam 0 mcg (antibiotic alone), read-out: MIC
[10] = Escherichia coli, 20 h, Tazobactam 0 mcg (antibiotic alone), read-out: MIC
[11] = Tazobactam 0 mcg (antibiotic alone)
[12] = ESBL inhibitor 0 mcg (antibiotic alone)
[13] = Table 5, with Tazobactam 10 mcg
[14] = Table 6, with Tazobactam 10 mcg

MIC (E. cloacae M-20; with Tazobactam 4 mcg): >64 µg/mL | MIC (E. cloacae M-20; with Tazobactam 8 mcg): >64 µg/mL | MIC (E. cloacae M-20; [7]): > 128 µg/mL | MIC (E. coli 7MP [1]; with Tazobactam 4 mcg): >64 µg/mL | MIC (E. coli 7MP [1]; with Tazobactam 8 mcg): >64 µg/mL | MIC (E. coli 7MP [1]; [8]): > 128 µg/mL | MIC (E. coli B-89 [2]; with Tazobactam 4 mcg): >64 µg/mL | MIC (E. coli B-89 [2]; with Tazobactam 8 mcg): >64 µg/mL | MIC (E. coli B-89 [2]; [9]): > 128 µg/mL | MIC (E. coli M50 [3]; [10]): > 128 µg/mL | MIC (E. coli M50 [3]; with Tazobactam 4 mcg): >64 µg/mL | MIC (E. coli M50 [3]; with Tazobactam 8 mcg): >64 µg/mL | MIC (K. pneumoniae M150; [11]): > 128 µg/mL | MIC (K. pneumoniae M150; with Tazobactam 4 mcg): > 64 µg/mL | MIC (K. pneumoniae M150; with Tazobactam 8 mcg): > 64 µg/mL
Compound: CC1(C)S[C@@H]2[C@H](NC(=O)[C@H](N)c3ccccc3)C(=O)N2[C@H]1C(=O)O [Ampicillin]
Zone of Inhibition (E. coli 7MP [4]; [12]): Nil | Interpretation of zone as per CLSI recommendations (E. coli 7MP [4]; Table 5, ESBL inhibitor 0 mcg): (R) | Interpretation of zone as per CLSI recommendations (E. coli 7MP [4]; Table 5, with Sulbactam 10 mcg): (R) | Interpretation of zone as per CLSI recommendations (E. coli 7MP [4]; Table 6, ESBL inhibitor 0 mcg): (R) | Interpretation of zone as per CLSI recommendations (E. coli 7MP [4]; Table 6, with Sulbactam 10 mcg): (R) | Zone of Inhibition (E. coli 7MP [4]; with Sulbactam 10 mcg): Nil | Zone of Inhibition (E. coli B-123; [12]): Nil | Interpretation of zone as per CLSI recommendations (E. coli B-123; Table 5, ESBL inhibitor 0 mcg): (R) | Interpretation of zone as per CLSI recommendations (E. coli B-123; Table 5, with Sulbactam 10 mcg): (R) | Interpretation of zone as per CLSI recommendations (E. coli B-123; Table 6, ESBL inhibitor 0 mcg): (R) | Interpretation of zone as per CLSI recommendations (E. coli B-123; Table 6, with Sulbactam 10 mcg): (R) | Zone of Inhibition (E. coli B-123; with Sulbactam 10 mcg): Nil | Zone of Inhibition (E. coli B-89 [5]; [12]): Nil | Interpretation of zone as per CLSI recommendations (E. coli B-89 [5]; Table 5, ESBL inhibitor 0 mcg): (R) | Interpretation of zone as per CLSI recommendations (E. coli B-89 [5]; Table 5, with Sulbactam 10 mcg): (R) | Interpretation of zone as per CLSI recommendations (E. coli B-89 [5]; Table 6, ESBL inhibitor 0 mcg): (R) | Interpretation of zone as per CLSI recommendations (E. coli B-89 [5]; Table 6, with Sulbactam 10 mcg): (R) | Zone of Inhibition (E. coli B-89 [5]; with Sulbactam 10 mcg): Nil | Zone of Inhibition (E. coli M-138; [12]): Nil | Interpretation of zone as per CLSI recommendations (E. coli M-138; Table 5, ESBL inhibitor 0 mcg): (R) | Interpretation of zone as per CLSI recommendations (E. coli M-138; Table 5, with Sulbactam 10 mcg): (R) | Interpretation of zone as per CLSI recommendations (E. coli M-138; Table 6, ESBL inhibitor 0 mcg): (R) | Interpretation of zone as per CLSI recommendations (E. coli M-138; Table 6, with Sulbactam 10 mcg): (R) | Zone of Inhibition (E. coli M-138; with Sulbactam 10 mcg): Nil | Zone of Inhibition (E. coli M50 [6]; [12]): Nil | Interpretation of zone as per CLSI recommendations (E. coli M50 [6]; Table 5, ESBL inhibitor 0 mcg): (R) | Interpretation of zone as per CLSI recommendations (E. coli M50 [6]; Table 5, with Sulbactam 10 mcg): (R) | Interpretation of zone as per CLSI recommendations (E. coli M50 [6]; Table 6, ESBL inhibitor 0 mcg): (R) | Interpretation of zone as per CLSI recommendations (E. coli M50 [6]; Table 6, with Sulbactam 10 mcg): (R) | Zone of Inhibition (E. coli M50 [6]; with Sulbactam 10 mcg): Nil | Zone of Inhibition (E. coli S-112; [12]): Nil | Interpretation of zone as per CLSI recommendations (E. coli S-112; Table 5, ESBL inhibitor 0 mcg): (R) | Interpretation of zone as per CLSI recommendations (E. coli S-112; Table 5, with Sulbactam 10 mcg): (R) | Interpretation of zone as per CLSI recommendations (E. coli S-112; Table 6, ESBL inhibitor 0 mcg): (R) | Interpretation of zone as per CLSI recommendations (E. coli S-112; Table 6, with Sulbactam 10 mcg): (R) | Zone of Inhibition (E. coli S-112; with Sulbactam 10 mcg): Nil

MIC (E. cloacae M-20; with Tazobactam 4 mcg): >64 µg/mL | MIC (E. cloacae M-20; with Tazobactam 8 mcg): >64 µg/mL | MIC (E. cloacae M-20; [7]): > 128 µg/mL | MIC (E. coli 7MP [1]; with Tazobactam 4 mcg): >64 µg/mL | MIC (E. coli 7MP [1]; with Tazobactam 8 mcg): >64 µg/mL | MIC (E. coli 7MP [1]; [8]): > 128 µg/mL | MIC (E. coli B-89 [2]; with Tazobactam 4 mcg): >64 µg/mL | MIC (E. coli B-89 [2]; with Tazobactam 8 mcg): >64 µg/mL | MIC (E. coli B-89 [2]; [9]): > 128 µg/mL | MIC (E. coli M50 [3]; [10]): > 128 µg/mL | MIC (E. coli M50 [3]; with Tazobactam 4 mcg): >64 µg/mL | MIC (E. coli M50 [3]; with Tazobactam 8 mcg): >64 µg/mL | MIC (K. pneumoniae M150; [11]): > 128 µg/mL | MIC (K. pneumoniae M150; with Tazobactam 4 mcg): > 64 µg/mL | MIC (K. pneumoniae M150; with Tazobactam 8 mcg): > 64 µg/mL
Compound: CCN1CCN(C(=O)N[C@@H](C(=O)N[C@@H]2C(=O)N3[C@@H]2SC(C)(C)[C@@H]3C(=O)O)c2ccccc2)C(=O)C1=O [Piperacillin]
Zone of Inhibition (E. coli 7MP [4]; [12]): Nil | Interpretation of zone as per CLSI recommendations (E. coli 7MP [4]; Table 5, ESBL inhibitor 0 mcg): (R) | Interpretation of zone as per CLSI recommendations (E. coli 7MP [4]; [13]): (R) | Interpretation of zone as per CLSI recommendations (E. coli 7MP [4]; Table 6, ESBL inhibitor 0 mcg): (R) | Interpretation of zone as per CLSI recommendations (E. coli 7MP [4]; [14]): (R) | Zone of Inhibition (E. coli 7MP [4]; with Tazobactam 10 mcg): 13.5 mm | Zone of Inhibition (E. coli B-123; [12]): Nil | Interpretation of zone as per CLSI recommendations (E. coli B-123; Table 5, ESBL inhibitor 0 mcg): (R) | Interpretation of zone as per CLSI recommendations (E. coli B-123; [13]): (R) | Interpretation of zone as per CLSI recommendations (E. coli B-123; Table 6, ESBL inhibitor 0 mcg): (R) | Interpretation of zone as per CLSI recommendations (E. coli B-123; [14]): (R) | Zone of Inhibition (E. coli B-123; with Tazobactam 10 mcg): 13.5 mm | Zone of Inhibition (E. coli B-89 [5]; [12]): Nil | Interpretation of zone as per CLSI recommendations (E. coli B-89 [5]; Table 5, ESBL inhibitor 0 mcg): (R) | Interpretation of zone as per CLSI recommendations (E. coli B-89 [5]; [13]): (R) | Interpretation of zone as per CLSI recommendations (E. coli B-89 [5]; Table 6, ESBL inhibitor 0 mcg): (R) | Interpretation of zone as per CLSI recommendations (E. coli B-89 [5]; [14]): (R) | Zone of Inhibition (E. coli B-89 [5]; with Tazobactam 10 mcg): 15 mm | Zone of Inhibition (E. coli M-138; [12]): Nil | Interpretation of zone as per CLSI recommendations (E. coli M-138; Table 5, ESBL inhibitor 0 mcg): (R) | Interpretation of zone as per CLSI recommendations (E. coli M-138; [13]): (R) | Interpretation of zone as per CLSI recommendations (E. coli M-138; Table 6, ESBL inhibitor 0 mcg): (R) | Interpretation of zone as per CLSI recommendations (E. coli M-138; [14]): (R) | Zone of Inhibition (E. coli M-138; with Tazobactam 10 mcg): 15.5 mm | Zone of Inhibition (E. coli M50 [6]; [12]): Nil | Interpretation of zone as per CLSI recommendations (E. coli M50 [6]; Table 5, ESBL inhibitor 0 mcg): (R) | Interpretation of zone as per CLSI recommendations (E. coli M50 [6]; [13]): (R) | Interpretation of zone as per CLSI recommendations (E. coli M50 [6]; Table 6, ESBL inhibitor 0 mcg): (R) | Interpretation of zone as per CLSI recommendations (E. coli M50 [6]; [14]): (R) | Zone of Inhibition (E. coli M50 [6]; with Tazobactam 10 mcg): 17 mm | Zone of Inhibition (E. coli S-112; [12]): Nil | Interpretation of zone as per CLSI recommendations (E. coli S-112; Table 5, ESBL inhibitor 0 mcg): (R) | Interpretation of zone as per CLSI recommendations (E. coli S-112; [13]): (R) | Interpretation of zone as per CLSI recommendations (E. coli S-112; Table 6, ESBL inhibitor 0 mcg): (R) | Interpretation of zone as per CLSI recommendations (E. coli S-112; [14]): (R) | Zone of Inhibition (E. coli S-112; with Tazobactam 10 mcg): 14 mm
